This is an account of results in paper PMC12516379, “Rotamer-Controlled Self-Immolative Linkers Enable Tunable Release of Neurosteroid Oxime Prodrugs” (ACS Medicinal Chemistry Letters, 2025).

The nature of the data set: Plasma stability assay at 37 °C via LC-MS/MS, human plasma.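 As to all read-outs here: prodrugs at 3 µM incubated in human plasma at 37 °C, intact prodrug quantified by LC-MS/MS over time, values are means of duplicate runs.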 It counts as in vitro ADME. Conditions: for half-life at 3 µM: human, plasma.

Like-named read-outs stand apart in the source and are kept apart here.

Take `CNCCN(C)C(=O)O/N=C(\C)[C@H]1CC[C@H]2[C@@H]3CCC4=CC(=O)CC[C@]4(C)[C@H]3CC[C@]12C` [20a]: the “t1/2 in human plasma at 37 °C (Tables S10-S13, S18)” value (3 µM, LC-MS/MS) was 2.45 h. For the same compound, for the setting “2 h”, the “Plasma, 37 °C %rem. at 2h (Table S23)” value is recorded as 73%. The half-life at 3 µM is 3.14 h (3 µM, LC-MS/MS, read-out: t1/2 in human plasma at 37 °C (Tables S10-S13, S18) (converted)); 2.49 h (LC-MS/MS, read-out: Half-life (t½) Plasma 37°C (converted)); 2.45 h (read-out: Plasma, 37 °C t½ (Table S23) (converted)).
